Assays:
Assay in all cases: relative viability (nuclei count vs DMSO), 5 days (fraction); higher = more cells survive
HCC-366 = tested on: HCC-366
Outline: (§1)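 Lung cancer cell lines were pin-tool dosed in 1536-well plates on the day after seeding, with either a lone drug or a fixed anchor-drug dose plus five library-drug doses (not always all listed) in √10 steps. Nuclei were counted on 4× images after 5 days. Relative viability is the ratio of treated-well to vehicle-well nuclei counts, with each value a median of duplicate plates.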

EPLC-272H = tested on: EPLC-272H
Outline: as §1

LU99A = tested on: LU99A
Outline: as §1

NCI-H2085 = tested on: NCI-H2085
Outline: as §1

NCI-H2126 = tested on: NCI-H2126
Outline: as §1

SW 1573 = tested on: SW 1573
Outline: as §1

RERF-LC-KJ = tested on: RERF-LC-KJ
Outline: as §1

LXF-289 = tested on: LXF-289
Outline: as §1

HCC-827 = tested on: HCC-827
Outline: as §1

NCI-H1666 = tested on: NCI-H1666
Outline: as §1

HCC-78 = tested on: HCC-78
Outline: as §1

HCC-44 = tested on: HCC-44
Outline: as §1

NCI-H23 = tested on: NCI-H23
Outline: as §1

ChaGo-K-1 = tested on: ChaGo-K-1
Outline: as §1

EMC-BAC-2 = tested on: EMC-BAC-2
Outline: as §1

NCI-H2405 = tested on: NCI-H2405
Outline: as §1

LOU-NH91 = tested on: LOU-NH91
Outline: as §1

SK-LU-1 = tested on: SK-LU-1
Outline: as §1

LK-2 = tested on: LK-2
Outline: as §1

NCI-H3122 = tested on: NCI-H3122
Outline: as §1

NCI-H1975 = tested on: NCI-H1975
Outline: as §1

C[C@@H]1CN(CC(=O)Nc2ccc3c(c2)Cc2cccc(-c4cc(=O)cc(N5CCOCC5)o4)c2S3)C[C@H](C)O1 + CC1(C)CCC(c2ccc(Cl)cc2)=C(CN2CCN(c3ccc(C(=O)NS(=O)(=O)c4ccc(N[C@H](CCN5CCOCC5)CSc5ccccc5)c(S(=O)(=O)C(F)(F)F)c4)cc3)CC2)C1 [Navitoclax] (partner 0.5 µM) showed a relative viability (HCC-366; first compound 0.04 µM) of 1.04, a relative viability (HCC-366; first compound 0.1265 µM) of 1.08 and a relative viability (HCC-366; first compound 0.4 µM) of 1.15. The relative viability (HCC-366; first compound 4 µM) was 0.944, the relative viability (EPLC-272H; first compound 0.04 µM) was 1.09 and the relative viability (EPLC-272H; first compound 0.1265 µM) was 0.935. For the same molecule, the relative viability (EPLC-272H; first compound 0.4 µM) was 1.11, the relative viability (EPLC-272H; first compound 4 µM) was 0.911 and the relative viability (LU99A; first compound 0.04 µM) was 0.856. The relative viability (LU99A; first compound 0.1265 µM) was 0.758, the relative viability (LU99A; first compound 0.4 µM) was 0.926 and the relative viability (LU99A; first compound 4 µM) was 0.821. It also gave a relative viability (NCI-H2085; first compound 0.04 µM) of 1.23, a relative viability (NCI-H2085; first compound 0.1265 µM) of 1.18 and a relative viability (NCI-H2085; first compound 0.4 µM) of 1.02. For the same molecule, the relative viability (NCI-H2085; first compound 4 µM) was 0.827, the relative viability (NCI-H2126; first compound 0.04 µM) was 0.879 and the relative viability (NCI-H2126; first compound 0.1265 µM) was 0.868. For the same molecule, the relative viability (NCI-H2126; first compound 0.4 µM) was 0.808, the relative viability (NCI-H2126; first compound 4 µM) was 0.851 and the relative viability (SW 1573; first compound 0.04 µM) was 0.979. The relative viability (SW 1573; first compound 0.1265 µM) was 1.05, the relative viability (SW 1573; first compound 0.4 µM) was 0.846 and the relative viability (SW 1573; first compound 4 µM) was 0.842. It also gave a relative viability (RERF-LC-KJ; first compound 0.04 µM) of 0.736, a relative viability (RERF-LC-KJ; first compound 0.1265 µM) of 1.12 and a relative viability (RERF-LC-KJ; first compound 0.4 µM) of 1.16. The relative viability (RERF-LC-KJ; first compound 4 µM) was 0.713, the relative viability (LXF-289; first compound 0.04 µM) was 0.941 and the relative viability (LXF-289; first compound 0.1265 µM) was 0.929. For the same molecule, the relative viability (LXF-289; first compound 0.4 µM) was 1, the relative viability (LXF-289; first compound 4 µM) was 0.913 and the relative viability (HCC-827; first compound 0.04 µM) was 0.931. It also gave a relative viability (HCC-827; first compound 0.1265 µM) of 0.944, a relative viability (HCC-827; first compound 0.4 µM) of 1.04 and a relative viability (HCC-827; first compound 4 µM) of 1.03. The relative viability (NCI-H1666; first compound 0.04 µM) was 1.14, the relative viability (NCI-H1666; first compound 0.1265 µM) was 1.12 and the relative viability (NCI-H1666; first compound 0.4 µM) was 0.862. It also gave a relative viability (NCI-H1666; first compound 4 µM) of 0.781, a relative viability (HCC-78; first compound 0.04 µM) of 0.668 and a relative viability (HCC-78; first compound 0.1265 µM) of 0.706. It also gave a relative viability (HCC-78; first compound 0.4 µM) of 0.69, a relative viability (HCC-78; first compound 4 µM) of 0.914 and a relative viability (HCC-44; first compound 0.04 µM) of 0.987. For the same molecule, the relative viability (HCC-44; first compound 0.1265 µM) was 0.894, the relative viability (HCC-44; first compound 0.4 µM) was 0.835 and the relative viability (HCC-44; first compound 4 µM) was 0.943. It also gave a relative viability (NCI-H23; first compound 0.04 µM) of 1, a relative viability (NCI-H23; first compound 0.1265 µM) of 1.03 and a relative viability (NCI-H23; first compound 0.4 µM) of 0.708. For the same molecule, the relative viability (NCI-H23; first compound 4 µM) was 0.668, the relative viability (ChaGo-K-1; first compound 0.1265 µM) was 0.933 and the relative viability (ChaGo-K-1; first compound 0.4 µM) was 0.956. For the same molecule, the relative viability (ChaGo-K-1; first compound 4 µM) was 0.936, the relative viability (EMC-BAC-2; first compound 0.04 µM) was 1.16 and the relative viability (EMC-BAC-2; first compound 0.1265 µM) was 1.12. The relative viability (EMC-BAC-2; first compound 0.4 µM) was 1.17, the relative viability (EMC-BAC-2; first compound 4 µM) was 1.09 and the relative viability (NCI-H2405; first compound 0.04 µM) was 1.02. The relative viability (NCI-H2405; first compound 0.1265 µM) was 1.1, the relative viability (NCI-H2405; first compound 0.4 µM) was 0.866 and the relative viability (NCI-H2405; first compound 4 µM) was 0.872. The relative viability (LOU-NH91; first compound 0.04 µM) was 0.701, the relative viability (LOU-NH91; first compound 0.1265 µM) was 0.617 and the relative viability (LOU-NH91; first compound 0.4 µM) was 0.702. For the same molecule, the relative viability (LOU-NH91; first compound 4 µM) was 0.66, the relative viability (SK-LU-1; first compound 0.04 µM) was 0.761 and the relative viability (SK-LU-1; first compound 0.1265 µM) was 0.969. It also gave a relative viability (SK-LU-1; first compound 0.4 µM) of 0.956, a relative viability (SK-LU-1; first compound 4 µM) of 0.637 and a relative viability (LK-2; first compound 0.1265 µM) of 0.83. For the same molecule, the relative viability (LK-2; first compound 0.4 µM) was 0.831, the relative viability (LK-2; first compound 4 µM) was 1.02 and the relative viability (NCI-H3122; first compound 0.04 µM) was 1.05. The relative viability (NCI-H3122; first compound 0.1265 µM) was 1.03, the relative viability (NCI-H3122; first compound 0.4 µM) was 0.965 and the relative viability (NCI-H3122; first compound 4 µM) was 0.95. For the same molecule, the relative viability (NCI-H1975; first compound 0.04 µM) was 1.33, the relative viability (NCI-H1975; first compound 0.1265 µM) was 1.06 and the relative viability (NCI-H1975; first compound 0.4 µM) was 1.02. It also gave a relative viability (NCI-H1975; first compound 4 µM) of 0.846.

Reference: the supplement of paper PMC10307832
